The term pKi denotes −log10 of the Ki, conventionally taken in molar units. The term pIC50 denotes −log10 of the IC50, conventionally taken in molar units.

pIC50, pKi: −log10 of the molar value. Read-outs that look alike come from different tables or passages of the source.

We go through 9 molecules from patent US20250114374A1, “BCL-2 INHIBITORS” (Newave Pharmaceutical Inc., priority 2021, published 2025).

The target of one series is T1, Bcl-w (Homo sapiens, UniProt Q92843).
T1 sequence (Q92843 1-193): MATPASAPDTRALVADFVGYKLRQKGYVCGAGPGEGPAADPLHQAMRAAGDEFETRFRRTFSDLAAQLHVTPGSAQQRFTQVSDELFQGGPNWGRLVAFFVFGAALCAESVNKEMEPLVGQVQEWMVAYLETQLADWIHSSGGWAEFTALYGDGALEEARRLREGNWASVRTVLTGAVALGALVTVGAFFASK
To be noted: cited from earlier work.

In series [1] the test system is xenograft models of small-cell lung cancer and acute lymphoblastic leukemia. To be noted: oral administration, alone; cited from earlier work.
The subject of the next series is circulating platelets. The note with it: cited from earlier work.
Series [2] concerns RS4; 11 with G101V mutation. Put plainly: In vitro anti-proliferation assay (ATPlite luminescence) in BCL-2-dependent ALL cell line RS4;11 with G101V mutation. It counts as cell-based. The note with it: read-out: RS411-G101V IC50. Put shortly:
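RS4;11 G101V cells at about 1×10^4 per well were exposed to a range of compound concentrations for about 72 h in medium with 10% FBS. Cellular ATP was measured by ATPlite luminescence after lysis, and IC50 was derived from the dose-response.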
For orientation: ATP-based viability assays read luminescence as a measure of living cells.

Where [3] appears, read: cellular anti-proliferative IC50, about 72 hours, medium with 10% FBS, ATPlite.

With `CC1(C)CCC(c2ccc(Cl)cc2)=C(CN2CCN(c3ccc(C(=O)NS(=O)(=O)c4ccc(N[C@H](CCN5CCOCC5)CSc5ccccc5)c(S(=O)(=O)C(F)(F)F)c4)cc3)CC2)C1` [ABT-263], the pKi at Bcl-w was at least 9.00. For the same molecule, the tumor regression entry in series [1] is on record as “complete tumor regressions”. Further, the “number of circulating platelets” value in the series with circulating platelets (clinical trial) is reported as “rapid, concentration-dependent decrease”. Besides, the dose-limiting toxicity entry with circulating platelets (single-agent treatment in patients) is “thrombocytopenia”.
Turning to `CC(C)Oc1ccccc1[C@@H]1CN(Cc2ccc(C(C)C)nc2)CCN1C1CC2(CCN(c3ccc(C(=O)NS(=O)(=O)c4cc5c(c([N+](=O)[O-])c4)N[C@H](C4CCOCC4)CO5)c(N4c5cc6cc[nH]c6nc5O[C@H]5COCC[C@@H]54)c3)CC2)C1` [Example 255, 2-[(3R,8S)-2,5-dioxa-9,15,17-triazatetracyclo[8.7.0.0^{3,8}.0^{12,16}]heptadeca-1(10),11,13,16-tetraen-9-yl]-4-{2-[(2R)-2-(2-isopropoxyphenyl)-4-[(6-isopropylpyridin-3-yl)methyl]piperazin-1-yl]-7-azaspiro[3.5]nonan-7-yl}-N-[(3R)-5-nitro-3-(oxan-4-yl)-3,4-dihydro-2H-1,4-benzoxazin-7-ylsulfonyl]benzamide], in series [2] (setting [3]), the pIC50 was 8.19.
As for `CC(C)Oc1ccccc1[C@@H]1CN(Cc2ccc(C(C)(C)C)nc2)CCN1C1CC2(CCN(c3ccc(C(=O)NS(=O)(=O)c4cc5c(c([N+](=O)[O-])c4)N[C@H](C4CCOCC4)CO5)c(N4c5cc6cc[nH]c6nc5O[C@H]5COCC[C@@H]54)c3)CC2)C1` [Example 256, 4-(2-((R)-4-((6-(tert-butyl)pyridin-3-yl)methyl)-2-(2-isopropoxyphenyl)piperazin-1-yl)-7-azaspiro[3.5]nonan-7-yl)-N-(((R)-5-nitro-3-(tetrahydro-2H-pyran-4-yl)-3,4-dihydro-2H-benzo[b][1,4]oxazin-7-yl)sulfonyl)-2-((5aS,9aR)-6,7,9,9a-tetrahydro-1H-pyrano[3,4-b]pyrrolo[3′,2′:5,6]pyrido[3,2-e][1,4]oxazin-5(5aH)-yl)benzamide], the pIC50 in series [2] (Homo sapiens, RS4-11, 72 h) was 7.93.
With `CC(C)Oc1ccccc1[C@@H]1CN(Cc2ccc(C3CC3)nc2)CCN1C1CC2(CCN(c3ccc(C(=O)NS(=O)(=O)c4cc5c(c([N+](=O)[O-])c4)N[C@H](C4CCOCC4)CO5)c(N4c5cc6cc[nH]c6nc5O[C@H]5COCC[C@@H]54)c3)CC2)C1` [Example 257, 4-(2-((R)-4-((6-cyclopropylpyridin-3-yl)methyl)-2-(2-isopropoxyphenyl)piperazin-1-yl)-7-azaspiro[3.5]nonan-7-yl)-N-(((R)-5-nitro-3-(tetrahydro-2H-pyran-4-yl)-3,4-dihydro-2H-benzo[b][1,4]oxazin-7-yl)sulfonyl)-2-((5aS,9aR)-6,7,9,9a-tetrahydro-1H-pyrano[3,4-b]pyrrolo[3′,2′:5,6]pyrido[3,2-e][1,4]oxazin-5(5aH)-yl)benzamide], the negative-log IC50 (pIC50) in series [2] (Homo sapiens, RS4-11, 72 h) is 8.41.
Consider `COc1ccc(CN2CCN(C3CC4(CCN(c5ccc(C(=O)NS(=O)(=O)c6cc7c(c([N+](=O)[O-])c6)N[C@H](C6CCOCC6)CO7)c(N6c7cc8cc[nH]c8nc7O[C@H]7COCC[C@@H]76)c5)CC4)C3)[C@H](c3ccccc3OC(C)C)C2)cn1` [Example 258, 4-(2-((R)-2-(2-isopropoxyphenyl)-4-((6-methoxypyridin-3-yl)methyl)piperazin-1-yl)-7-azaspiro[3.5]nonan-7-yl)-N-(((R)-5-nitro-3-(tetrahydro-2H-pyran-4-yl)-3,4-dihydro-2H-benzo[b][1,4]oxazin-7-yl)sulfonyl)-2-((5aS,9aR)-6,7,9,9a-tetrahydro-1H-pyrano[3,4-b]pyrrolo[3′,2′:5,6]pyrido[3,2-e][1,4]oxazin-5(5aH)-yl)benzamide], for which, in series [2] (Homo sapiens, RS4-11, 72 h), the pIC50 is 7.93.
Regarding `CNc1ccc(CN2CCN(C3CC4(CCN(c5ccc(C(=O)NS(=O)(=O)c6cc7c(c([N+](=O)[O-])c6)N[C@H](C6CCOCC6)CO7)c(N6c7cc8cc[nH]c8nc7O[C@H]7COCC[C@@H]76)c5)CC4)C3)[C@H](c3ccccc3OC(C)C)C2)cn1` [Example 259, 2-[(3R,8S)-2,5-dioxa-9,15,17-triazatetracyclo[8.7.0.0^{3,8}.0^{12,16}]heptadeca-1(10),11,13,16-tetraen-9-yl]-4-{2-[(2R)-2-(2-isopropoxyphenyl)-4-{[6-(methylamino)pyridin-3-yl]methyl}piperazin-1-yl]-7-azaspiro[3.5]nonan-7-yl}-N-[(3R)-5-nitro-3-(oxan-4-yl)-3,4-dihydro-2H-1,4-benzoxazin-7-ylsulfonyl]benzamide], in series [2] (setting [3]), the pIC50 was 8.01.
Same read-out and setting: in the case of `CC(C)Oc1ccccc1[C@@H]1CN(Cc2ccc(N3CCOC[C@@H]3C)nc2)CCN1C1CC2(CCN(c3ccc(C(=O)NS(=O)(=O)c4cc5c(c([N+](=O)[O-])c4)N[C@H](C4CCOCC4)CO5)c(N4c5cc6cc[nH]c6nc5O[C@H]5COCC[C@@H]54)c3)CC2)C1` [Example 260, 2-[(3R,8S)-2,5-dioxa-9,15,17-triazatetracyclo[8.7.0.0^{3,8}.0^{12,16}]heptadeca-1(10),11,13,16-tetraen-9-yl]-4-{2-[(2R)-2-(2-isopropoxyphenyl)-4-({6-[(3S)-3-methylmorpholin-4-yl]pyridin-3-yl}methyl)piperazin-1-yl]-7-azaspiro[3.5]nonan-7-yl}-N-[(3R)-5-nitro-3-(oxan-4-yl)-3,4-dihydro-2H-1,4-benzoxazin-7-ylsulfonyl]benzamide] it was 8.06; in that of `CC(C)Oc1ccccc1[C@@H]1CN(Cc2ccc(C(F)(F)F)nc2)CCN1C1CC2(CCN(c3ccc(C(=O)NS(=O)(=O)c4cc5c(c([N+](=O)[O-])c4)N[C@H](C4CCOCC4)CO5)c(N4c5cc6cc[nH]c6nc5O[C@H]5COCC[C@@H]54)c3)CC2)C1` [Example 261, 2-[(3R,8S)-2,5-dioxa-9,15,17-triazatetracyclo[8.7.0.0^{3,8}.0^{12,16}]heptadeca-1(10),11,13,16-tetraen-9-yl]-4-{2-[(2R)-2-(2-isopropoxyphenyl)-4-{[6-(trifluoromethyl)pyridin-3-yl]methyl}piperazin-1-yl]-7-azaspiro[3.5]nonan-7-yl}-N-[(3R)-5-nitro-3-(oxan-4-yl)-3,4-dihydro-2H-1,4-benzoxazin-7-ylsulfonyl]benzamide], 8.41.
Still for that read-out and setting: the value for `CC(C)Oc1ccccc1[C@@H]1CN(Cc2ccc(C#N)nc2)CCN1C1CC2(CCN(c3ccc(C(=O)NS(=O)(=O)c4cc5c(c([N+](=O)[O-])c4)N[C@H](C4CCOCC4)CO5)c(N4c5cc6cc[nH]c6nc5O[C@H]5COCC[C@@H]54)c3)CC2)C1` [Example 262, 4-{2-[(2R)-4-[(6-cyanopyridin-3-yl)methyl]-2-(2-isopropoxyphenyl)piperazin-1-yl]-7-azaspiro[3.5]nonan-7-yl}-2-[(3R,8S)-2,5-dioxa-9,15,17-triazatetracyclo[8.7.0.0^{3,8}.0^{12,16}]heptadeca-1(10),11,13,16-tetraen-9-yl]-N-[(3R)-5-nitro-3-(oxan-4-yl)-3,4-dihydro-2H-1,4-benzoxazin-7-ylsulfonyl]benzamide] was 8.19.
